Biological target: P. falciparum apicoplast DNA polymerase (Pf-apPOL) (Plasmodium falciparum, UniProt Q8ILY1)
Assay: Fluorescence-based high-throughput DNA polymerase assay (molecular beacon), primary screen and dose-response
Assay type: biochemical
Conditions: for DNA Pol: 90 min, 10 µM; for % inhibition Apol 40': DRC-2, 40'
Method: The HT assay employs a molecular beacon, a stem-loop DNA template with a Cy3 dye and the Black Hole Quencher on the 3′ and 5′ ends of the DNA, respectively. Pf-apPOL concentration is based on a calculated absorptivity of ε280 = 56750 M^−1 cm^−1. Reactions were carried out at 25 °C, using Corning 3575 […] (well-volume, 20 µL). Assays testing for compound inhibition composed of reaction buffer (pH 7.9 in 50 mM potassium acetate, 20 mM Tris-acetate and 10 mM magnesium acetate), Pf-apPOL (20 nM), DNA substrate (20 nM), dNTPs (6 µM), and compound (10 µM in DMSO). The DNA and nucleotide substrates (dNTPs) were at concentrations of 20 nM and 6 µM, respectively, in the assay. Pf-apPOL was incubated in the reaction buffer with dNTPs and the compound of interest (10 µM, in the assay) at 25 °C for 10 min. The DNA substrate was then added and the reaction was allowed to proceed for 90 min at 25 °C.
Each assay plate contained 16 negative controls (no Pf-apPOL, DMSO present) and 16 positive controls (Pf-apPOL present, no DMSO). The fluorescence of each well was determined using a BioTek Synergy Neo fluorescence plate reader using excitation and emission wavelengths of 555 and 570 nm, respectively.
In the above, Min is the average of fluorescence emission of the negative controls (substrate only), Max the average fluorescence emission from the positive controls (enzyme + substrate), and Test the emission from the assays in the presence of compounds (enzyme + compound + substrates). […] […] The IC50 of each compound was determined using Equation (2): (2) IC50= Vmax/(1+ (I/IC50)^n)
In the above, n measures cooperativity, with n > 1 indicating synergistic binding of more than a single molecule of the compound.
To identify apPOL inhibitors we utilised our previously developed high-throughput DNA polymerase assay. The HT assay is based on a molecular beacon DNA template that forms a stem-loop with a Cy3 dye and the Black Hole Quencher on the 3′ and 5′ ends of the DNA, respectively. DNA polymerase activity extends an annealed primer through the stem region, displacing the fluorophore from the quencher, thereby increasing its fluorescence (Figure 1(A)). The assay accurately recapitulates the kinetic behaviour of apPOL, as measured through more conventional low-throughput gel-based assays. The Z′ factor for the assay described here was 0.9 across all plates (data not shown).
Figure 1. High-throughput screening. (A) The fluorescent-based DNA polymerase assay used to screen the compound libraries. The DNA template strand is a hairpin loop with a primer annealed to the loop. The 3’ end of the primer is 11 bases away from the 6 bp duplex. Strand displacement activity of the DNA polymerase separates the Cy3 dye from the Black hole quencher leading to an increase in fluorescent signal. (B) The high-throughput assay workflow. The DNA polymerase is incubated with […] compound for 10 min prior to addition of the hairpin substrate. The reaction is quenched at 3 different time points and the fluorescent signal is measured and % inhibition is determined using the provided equation.

Chain of P. falciparum apicoplast DNA polymerase (Pf-apPOL) (Q8ILY1 entry or part of it): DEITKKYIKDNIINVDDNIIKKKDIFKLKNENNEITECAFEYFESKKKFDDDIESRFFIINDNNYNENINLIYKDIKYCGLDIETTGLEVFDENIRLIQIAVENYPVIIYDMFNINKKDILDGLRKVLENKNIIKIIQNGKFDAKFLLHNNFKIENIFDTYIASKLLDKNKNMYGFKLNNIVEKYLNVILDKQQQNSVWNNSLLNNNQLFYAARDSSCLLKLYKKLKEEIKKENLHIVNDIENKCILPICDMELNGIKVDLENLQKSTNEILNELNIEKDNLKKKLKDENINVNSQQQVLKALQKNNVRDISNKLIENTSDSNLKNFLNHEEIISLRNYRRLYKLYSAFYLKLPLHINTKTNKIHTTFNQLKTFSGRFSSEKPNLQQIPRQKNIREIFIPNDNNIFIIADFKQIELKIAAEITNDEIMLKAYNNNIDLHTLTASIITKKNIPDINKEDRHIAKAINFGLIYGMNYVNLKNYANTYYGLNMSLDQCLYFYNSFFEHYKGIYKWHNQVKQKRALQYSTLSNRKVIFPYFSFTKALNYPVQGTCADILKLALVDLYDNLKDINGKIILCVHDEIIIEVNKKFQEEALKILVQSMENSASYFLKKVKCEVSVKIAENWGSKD

COc1cc(/C=C2\S/C(=N/C(C)=O)NC2=O)cc(Br)c1OCC(=O)O [KU0057841]
DNA Pol ('DNA Pol', screening value, unit not given): 27
% inhibition Apo pol 10' (DRC-1, concentration 2.5): 4.866%
% inhibition Apo pol 10' (DRC-1, concentration 5): 4.738%
% inhibition Apo pol 10' (DRC-1, concentration 10): 17.12%
% inhibition Apo pol 10' (DRC-1, concentration 20): 35.9073%
% inhibition Apo pol 10' (DRC-1, concentration 40): 63.4189%
% inhibition Apo pol 10' (DRC-1, concentration 80): 83.5237%
% inhibition Apol 90' (DRC-1, 90', concentration 2.5): 3.601%
% inhibition Apol 90' (DRC-1, 90', concentration 5): -2.326%
% inhibition Apol 90' (DRC-1, 90', concentration 10): 5.395%
% inhibition Apol 90' (DRC-1, 90', concentration 20): 16.7076%
% inhibition Apol 90' (DRC-1, 90', concentration 40): 36.5505%
% inhibition Apol 90' (DRC-1, 90', concentration 80): 62.7524%
% inhibition apPOL 180' (DRC-1, 180', concentration 2.5): 1.284%
% inhibition apPOL 180' (DRC-1, 180', concentration 5): -7.5244%
% inhibition apPOL 180' (DRC-1, 180', concentration 10): -2.004%
% inhibition apPOL 180' (DRC-1, 180', concentration 20): 5.338%
% inhibition apPOL 180' (DRC-1, 180', concentration 40): 19.6206%
% inhibition apPOL 180' (DRC-1, 180', concentration 80): 44.2464%
% inhibition Apo pol 5' (DRC-2, 5', concentration 2.5): 2.71%
% inhibition Apo pol 5' (DRC-2, 5', concentration 5): 4.4%
% inhibition Apo pol 5' (DRC-2, 5', concentration 10): 17%
% inhibition Apo pol 5' (DRC-2, 5', concentration 20): 29%
% inhibition Apo pol 5' (DRC-2, 5', concentration 40): 52%
% inhibition Apo pol 5' (DRC-2, 5', concentration 80): 60%
% inhibition Apol 40' (concentration 2.5): 1.51%
% inhibition Apol 40' (concentration 5): 3.29%
% inhibition Apol 40' (concentration 10): 13%
% inhibition Apol 40' (concentration 20): 24%
% inhibition Apol 40' (concentration 40): 47%
% inhibition Apol 40' (concentration 80): 64%
% inhibition ApPOL 90' (DRC-2, 90', concentration 2.5): 1.23%
% inhibition ApPOL 90' (DRC-2, 90', concentration 5): 2.28%
% inhibition ApPOL 90' (DRC-2, 90', concentration 10): 9.51%
% inhibition ApPOL 90' (DRC-2, 90', concentration 20): 20%
% inhibition ApPOL 90' (DRC-2, 90', concentration 40): 41%
% inhibition ApPOL 90' (DRC-2, 90', concentration 80): 60%
% inhibition apPOL 180' (DRC-2, 180', concentration 2.5): 1.62%
% inhibition apPOL 180' (DRC-2, 180', concentration 5): -1.41%
% inhibition apPOL 180' (DRC-2, 180', concentration 10): 4%
% inhibition apPOL 180' (DRC-2, 180', concentration 20): 14%
% inhibition apPOL 180' (DRC-2, 180', concentration 40): 28%
% inhibition apPOL 180' (DRC-2, 180', concentration 80): 49%
% inhibition Apo pol 5' (conc 80 (unit not given), 5', DRC-2): 60%
% inhibition ApPOL 90' (conc 80 (unit not given), 90', DRC-2): 60%
DNA Pol (primary screen hit value, DNA Pol (186 hits)): 27

Reference: PMC9090415, “Discovery of small molecule inhibitors of Plasmodium falciparum apicoplast DNA polymerase” (Journal of Enzyme Inhibition and Medicinal Chemistry, 2022)
